According to ChEMBL document CHEMBL1201862, “PubChem BioAssay data set” (2004):
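1) Cells in 96-well plates. 2) Compound, 48 h, 5 concentrations. 3) Linear interpolation between surrounding doses. 4) Unreached endpoint = highest concentration. GI50 = concentration required for 50% inhibition of growth.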 Activity calls are given as the source filed them. Cut-off read from the data, not from the text of the source: active = GI50 up to about 1.1 µM and inactive = higher.

How the values were obtained:
Test in all cases: NCI-60 cell line screen, 48 h
SN12C = test system: SN12C
DMS-273 = test system: DMS-273
CAKI-1 = test system: CAKI-1
OVCAR-8 = test system: OVCAR-8
K562 = test system: K562
MOLT-4 = test system: MOLT-4
CCRF-CEM = test system: CCRF-CEM
NCI-H522 = test system: NCI-H522
SF-295 = test system: SF-295
SNB-75 = test system: SNB-75
SR = test system: SR
OVCAR-3 = test system: OVCAR-3
LXFL 529 = test system: LXFL 529
COLO 205 = test system: COLO 205
OVCAR-4 = test system: OVCAR-4
UO-31 = test system: UO-31

Measured: GI50

Cc1cc(C)c(-n2c(-c3ccccc3)cs/c2=N\N=C2C=C(C(C)(C)C)C(=O)C(C(C)(C)C)=C2)c(C)c1
inactive: SN12C > 100 µM | DMS-273 > 100 µM | CAKI-1 > 100 µM | OVCAR-8 > 100 µM | K562 55.8 µM | MOLT-4 > 100 µM | CCRF-CEM > 100 µM | NCI-H522 85.1 µM | SF-295 > 100 µM | SNB-75 21.3 µM | SR > 100 µM | OVCAR-3 > 100 µM | LXFL 529 75.5 µM | COLO 205 > 100 µM | OVCAR-4 > 100 µM

N#Cc1c(-c2ccccc2)c(-c2ccccc2)cc2c(=O)c3ccc(Cl)cc3[nH]c12
inactive: SN12C > 100 µM | DMS-273 > 100 µM | OVCAR-8 > 100 µM | MOLT-4 > 100 µM | CCRF-CEM > 100 µM | SF-295 > 100 µM | SNB-75 > 100 µM | SR > 100 µM | OVCAR-3 > 100 µM | UO-31 > 100 µM | LXFL 529 > 100 µM | COLO 205 > 100 µM

CCOC(=O)NC/C=C/COC1CCCCO1 (stereo not given)
inactive: SN12C > 100 µM | DMS-273 > 100 µM | CAKI-1 > 100 µM | OVCAR-8 > 100 µM | K562 > 100 µM | MOLT-4 > 100 µM | CCRF-CEM > 100 µM | NCI-H522 > 100 µM | SNB-75 > 100 µM | SR > 100 µM | UO-31 > 100 µM | LXFL 529 > 100 µM | COLO 205 > 100 µM | OVCAR-4 > 100 µM

COc1ccc(C(=C(C#N)C#N)c2ccc(OC)cc2)cc1
inactive: SN12C > 100 µM | DMS-273 > 100 µM | CAKI-1 > 100 µM | OVCAR-8 > 100 µM | K562 > 100 µM | MOLT-4 > 100 µM | CCRF-CEM 33 µM | NCI-H522 30 µM | SF-295 > 100 µM | SR 59.4 µM | OVCAR-3 > 100 µM | UO-31 > 100 µM | LXFL 529 > 100 µM | COLO 205 > 100 µM | OVCAR-4 > 100 µM

CC(=O)OC1CC2CCN3C(=O)c4cc5c(cc4[C@H](C1OC(C)=O)C23)OCO5 (stereo not given in full)
inactive: SN12C > 100 µM | DMS-273 > 100 µM | OVCAR-8 > 100 µM | K562 > 100 µM | MOLT-4 > 100 µM | CCRF-CEM > 100 µM | NCI-H522 > 100 µM | SF-295 > 100 µM | SNB-75 > 100 µM | SR > 100 µM | OVCAR-3 > 100 µM | UO-31 > 100 µM | LXFL 529 > 100 µM | COLO 205 > 100 µM

O=C1CC[C@H](NC(=O)Cc2ccccc2)C(=O)N1 [ANTINEOPLASTON A10]
inactive: SN12C > 1250 µM | DMS-273 > 1250 µM | CAKI-1 > 1250 µM | OVCAR-8 > 1250 µM | K562 > 1250 µM | MOLT-4 > 1250 µM | CCRF-CEM > 1250 µM | NCI-H522 > 1250 µM | SF-295 > 1250 µM | SNB-75 877 µM | SR > 1250 µM | UO-31 > 1250 µM | LXFL 529 > 1250 µM | COLO 205 > 1250 µM | OVCAR-4 > 1250 µM

CC[C@H]1CC(=O)c2c(cc3c(c2O)C(=O)c2ccccc2C3=O)[C@@]1(C#N)C(=O)OC(C)(C)C
inactive: SN12C 3.97 µM | DMS-273 2.42 µM | OVCAR-8 2.62 µM | MOLT-4 2.33 µM | NCI-H522 2.29 µM | SF-295 4.47 µM | SNB-75 4.1 µM | SR 3.66 µM | OVCAR-3 2.81 µM | UO-31 2.69 µM | LXFL 529 3.25 µM | COLO 205 1.96 µM

CN(C)CCNC(=O)c1cc2ccccc2c2nc3ccccc3nc12
inactive: CAKI-1 2.67 µM | NCI-H522 1.89 µM | SNB-75 1.19 µM | OVCAR-3 2.1 µM | UO-31 1.8 µM | LXFL 529 1.43 µM
active: SN12C 0.736 µM | DMS-273 0.448 µM | OVCAR-8 0.771 µM | K562 0.363 µM | MOLT-4 0.153 µM | SF-295 0.575 µM | SR 0.163 µM | COLO 205 0.828 µM | OVCAR-4 0.792 µM

N#Cc1ccc(Cc2ccccn2)cc1Cl
inactive: SN12C > 100 µM | DMS-273 > 100 µM | CAKI-1 > 100 µM | OVCAR-8 > 100 µM | K562 > 100 µM | MOLT-4 > 100 µM | CCRF-CEM > 100 µM | NCI-H522 > 100 µM | SF-295 > 100 µM | SR > 100 µM | UO-31 > 100 µM | LXFL 529 > 100 µM | COLO 205 > 100 µM | OVCAR-4 > 100 µM

COc1ccc2[nH]cc(CCNC(=O)[C@](O)(Cc3cn(C)c4ccccc34)[C@@]3(O)OCC(O)C3O)c2c1 (stereo not given in full)
inactive: SN12C > 100 µM | DMS-273 > 100 µM | CAKI-1 > 100 µM | OVCAR-8 > 100 µM | K562 74 µM | MOLT-4 37 µM | CCRF-CEM 35.8 µM | NCI-H522 > 100 µM | SF-295 > 100 µM | SNB-75 38.5 µM | SR > 100 µM | OVCAR-3 > 100 µM | LXFL 529 67.8 µM | COLO 205 > 100 µM | OVCAR-4 > 100 µM

O=C1[C@@H]2C3c4ccccc4C([C@@H]2C(=O)N1c1ccccc1)S3(=O)=O
inactive: SN12C 61.5 µM | DMS-273 > 100 µM | OVCAR-8 > 100 µM | K562 61.4 µM | MOLT-4 > 100 µM | CCRF-CEM 32.1 µM | NCI-H522 74.3 µM | SF-295 81.7 µM | SNB-75 65.3 µM | SR > 100 µM | OVCAR-3 > 100 µM | UO-31 > 100 µM | LXFL 529 > 100 µM | COLO 205 > 100 µM

COC(=O)c1cc2c(=O)n(C)c3ccccc3n2c1C(=O)OC
inactive: SN12C 42.5 µM | DMS-273 51.6 µM | CAKI-1 73.5 µM | OVCAR-8 35.8 µM | K562 > 100 µM | MOLT-4 > 100 µM | CCRF-CEM > 100 µM | NCI-H522 20 µM | SF-295 34.3 µM | SNB-75 16.1 µM | OVCAR-3 30 µM | UO-31 63.1 µM | LXFL 529 > 100 µM | COLO 205 > 100 µM | OVCAR-4 > 100 µM

Cc1ccc(/N=N/C(C(=O)c2ccccc2)C(=O)c2ccccc2)cc1
inactive: SN12C 18.7 µM | DMS-273 19.2 µM | CAKI-1 27.4 µM | OVCAR-8 28.6 µM | K562 17.7 µM | MOLT-4 10.2 µM | CCRF-CEM 10.9 µM | NCI-H522 17.3 µM | SF-295 24.7 µM | SNB-75 20.6 µM | OVCAR-3 29.1 µM | UO-31 14.8 µM | LXFL 529 14.5 µM | COLO 205 22.6 µM | OVCAR-4 13.1 µM

COc1ccc2c(c1)O[C@@H]1c3ccc(OC)cc3OC[C@H]21
inactive: SN12C 55.2 µM | DMS-273 14.1 µM | CAKI-1 29.6 µM | OVCAR-8 42.1 µM | K562 6.11 µM | MOLT-4 16.6 µM | CCRF-CEM 27.2 µM | NCI-H522 15.3 µM | SF-295 26.9 µM | SNB-75 16 µM | SR 22.9 µM | OVCAR-3 34 µM | UO-31 30.1 µM | LXFL 529 28.8 µM | OVCAR-4 29.2 µM
